Data published in ChEMBL document CHEMBL5120824, “Synthesis and pharmacological validation of fluorescent diarylsulfonylurea analogues as NLRP3 inhibitors and imaging probes” (Eur J Med Chem, 2022).
One block for each compound: values may come before it. Calls of active or inactive are those of the source. No cut-off for these calls is given here.

Legend:
[1] = Cytotoxicity against human THP-1 assessed as reduction in cell viability measured after 72 hrs by CCK-8 assay; assay type: toxicity, cell-based; conditions: THP-1 cells
[2] = Fluorescence property of the compound in DMSO assessed as maximum emission wavelength; assay type: physicochemical
[3] = Fluorescence property of the compound in DMSO assessed as quantum yield; assay type: physicochemical
[4] = molecular target: NACHT, LRR and PYD domains-containing protein 3 (Mus musculus) (UniProt Q8R4B8); assay: Binding affinity to NLRP3 in mouse RAW264.7 cells assessed as increase in mean fluorescence intensity at 10 uM preincubated with LPS for 3 hrs followed by compound addition and measured after 30 mins by beckman coulter based flow cytometry analysis; assay type: cell-based
[5] = Drug distribution in cytoplasm of mouse RAW264.7 cells expressing NLRP3 assessed as increase in green fluorescence at 10 uM incubated for 0.5 hrs by Hoechst 33342 staining based confocal microscopic analysis; assay type: ADME, subcellular; conditions: raw264.7, 0.5 h
[6] = Fluorescence property of the compound in DMSO assessed as maximum absorption wavelength; assay type: physicochemical
[7] = Fluorescence property of the compound in DMSO assessed as molar extinction coefficient; assay type: physicochemical
[8] = molecular target: NACHT, LRR and PYD domains-containing protein 3 (Mus musculus) (UniProt Q8R4B8); assay: Binding affinity to NLRP3 in mouse RAW264.7 cells assessed as increase in mean fluorescence intensity at 10 uM incubated for 30 mins by beckman coulter based flow cytometry analysis; assay type: cell-based
[9] = molecular target: NACHT, LRR and PYD domains-containing protein 3 (Mus musculus) (UniProt Q8R4B8); assay: Binding affinity to NLRP3 in mouse RAW264.7 cells assessed as thermal stabilization at 100 uM at 52 to 56 degreeC incubated for 6 hrs by cellular thermal shift assay; assay type: cell-based
[10] = molecular target: NACHT, LRR and PYD domains-containing protein 3 (Homo sapiens, UniProt Q96P20); assay: Inhibition of NLRP3 inflammasome activation in PMA differentiated LPS-primed human THP-1 cells assessed as reduction in nigericin-induced IL-1beta level pretreated for 2 hrs followed by nigericin addition and measured after 30 mins by ELISA; assay type: cell-based
Sequence of NACHT, LRR and PYD domains-containing protein 3 (Q96P20 whole entry, the tested form may be a part): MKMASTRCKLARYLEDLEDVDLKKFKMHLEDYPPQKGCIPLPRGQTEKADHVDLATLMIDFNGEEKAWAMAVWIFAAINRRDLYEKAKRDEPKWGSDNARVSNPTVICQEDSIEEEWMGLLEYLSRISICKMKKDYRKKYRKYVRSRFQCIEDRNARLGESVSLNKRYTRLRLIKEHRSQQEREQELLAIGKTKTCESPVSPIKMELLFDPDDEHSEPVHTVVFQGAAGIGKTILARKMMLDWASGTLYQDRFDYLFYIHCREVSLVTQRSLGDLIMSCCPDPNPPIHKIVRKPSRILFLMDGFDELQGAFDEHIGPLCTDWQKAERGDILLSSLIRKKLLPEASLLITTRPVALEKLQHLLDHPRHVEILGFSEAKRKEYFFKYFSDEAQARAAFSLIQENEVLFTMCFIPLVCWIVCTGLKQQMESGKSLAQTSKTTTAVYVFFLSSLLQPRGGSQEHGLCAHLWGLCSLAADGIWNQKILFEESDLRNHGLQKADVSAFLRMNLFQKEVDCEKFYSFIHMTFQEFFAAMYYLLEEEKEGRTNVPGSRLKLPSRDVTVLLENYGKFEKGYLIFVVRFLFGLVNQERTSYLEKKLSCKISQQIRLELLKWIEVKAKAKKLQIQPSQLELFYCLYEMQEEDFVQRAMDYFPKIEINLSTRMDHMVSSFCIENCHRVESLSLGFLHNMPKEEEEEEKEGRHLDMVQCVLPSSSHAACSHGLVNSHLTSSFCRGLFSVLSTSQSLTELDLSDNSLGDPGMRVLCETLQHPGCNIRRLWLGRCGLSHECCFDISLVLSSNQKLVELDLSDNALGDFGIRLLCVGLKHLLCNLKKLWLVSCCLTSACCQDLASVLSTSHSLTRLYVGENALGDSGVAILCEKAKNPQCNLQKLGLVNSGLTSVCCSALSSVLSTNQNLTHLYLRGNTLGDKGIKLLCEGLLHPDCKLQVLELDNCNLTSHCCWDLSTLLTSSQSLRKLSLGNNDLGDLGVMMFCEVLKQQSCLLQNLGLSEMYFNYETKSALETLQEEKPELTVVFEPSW

Sequence of NACHT, LRR and PYD domains-containing protein 3 (Mus musculus) (Q8R4B8 whole entry, the tested form may be a part): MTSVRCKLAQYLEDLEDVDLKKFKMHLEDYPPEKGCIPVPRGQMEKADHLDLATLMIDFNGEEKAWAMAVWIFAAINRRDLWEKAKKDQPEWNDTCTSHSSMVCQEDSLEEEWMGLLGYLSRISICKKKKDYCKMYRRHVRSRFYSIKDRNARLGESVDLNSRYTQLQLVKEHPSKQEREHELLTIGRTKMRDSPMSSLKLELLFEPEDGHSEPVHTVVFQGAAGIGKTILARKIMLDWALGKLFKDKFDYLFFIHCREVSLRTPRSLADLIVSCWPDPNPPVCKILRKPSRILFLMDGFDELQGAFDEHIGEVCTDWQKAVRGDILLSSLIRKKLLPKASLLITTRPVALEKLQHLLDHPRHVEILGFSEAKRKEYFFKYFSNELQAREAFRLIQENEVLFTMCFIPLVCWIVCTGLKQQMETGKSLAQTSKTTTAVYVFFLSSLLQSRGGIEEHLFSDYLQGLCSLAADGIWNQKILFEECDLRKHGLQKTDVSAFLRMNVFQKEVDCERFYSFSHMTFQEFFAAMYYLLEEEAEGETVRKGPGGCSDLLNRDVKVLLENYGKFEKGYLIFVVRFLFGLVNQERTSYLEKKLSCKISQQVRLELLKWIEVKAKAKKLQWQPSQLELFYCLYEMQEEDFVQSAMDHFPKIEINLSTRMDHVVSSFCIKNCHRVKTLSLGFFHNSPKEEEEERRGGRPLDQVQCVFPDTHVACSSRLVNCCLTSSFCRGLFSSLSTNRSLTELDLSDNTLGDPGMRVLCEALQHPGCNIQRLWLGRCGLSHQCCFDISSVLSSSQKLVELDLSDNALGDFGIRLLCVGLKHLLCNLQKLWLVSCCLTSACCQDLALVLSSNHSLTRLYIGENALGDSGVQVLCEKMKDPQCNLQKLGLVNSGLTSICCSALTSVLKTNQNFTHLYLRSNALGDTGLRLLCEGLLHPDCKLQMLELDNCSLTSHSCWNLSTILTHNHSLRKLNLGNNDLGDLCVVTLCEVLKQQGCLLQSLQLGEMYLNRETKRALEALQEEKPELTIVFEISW

SMILES: O=C(Nc1c2c(cc3c1CCC3)CCC2)NS(=O)(=O)c1ccc(N2CC3CCC(C2)O3)c2nonc12
CC50 at 72 h [1]: > 100 µM

SMILES: CSc1ccc(S(=O)(=O)NC(=O)Nc2c3c(cc4c2CCC4)CCC3)c2nonc12
CC50 at 72 h [1]: > 100 µM

SMILES: CC(C)(C)OC(=O)NC1CN(c2ccc(S(=O)(=O)NC(=O)Nc3c4c(cc5c3CCC5)CCC4)c3nonc23)C1
CC50 at 72 h [1]: > 100 µM

SMILES: CC(C)(O)c1coc(S(=O)(=O)NC(=O)Nc2c3c(cc4c2CCC4)CCC3)c1
CC50 at 72 h [1]: 81.4 µM

Activity [2]: 602 nm
Activity [3]: 6%
Activity [4]: Active
Drug uptake [5]: Active
Activity [6]: 450 nm
Activity [7]: 8085 M⁻¹ cm⁻¹
Activity [8]: Active
Activity [9]: Active
SMILES: CN(C)c1ccc(S(=O)(=O)NC(=O)Nc2c3c(cc4c2CCC4)CCC3)c2nsnc12
CC50 at 72 h [1]: > 100 µM

Activity [2]: 586 nm
Activity [3]: 16%
Activity [6]: 448 nm
Activity [7]: 7406 M⁻¹ cm⁻¹
Activity [9]: Active
SMILES: CN(C)c1ccc(S(=O)(=O)NC(=O)Nc2c3c(cc4c2CCC4)CCC3)c2nonc12
CC50 at 72 h [1]: > 100 µM

SMILES: O=C(Nc1c2c(cc3c1CCC3)CCC2)NS(=O)(=O)c1ccc(NC2CC(F)(F)C2)c2nonc12
CC50 at 72 h [1]: > 100 µM

IC50 [10]: 2.38 µM
SMILES: O=C(Nc1c2c(cc3c1CCC3)CCC2)NS(=O)(=O)c1ccc(N2CCN(CCO)CC2)c2nonc12
CC50 at 72 h [1]: > 100 µM

SMILES: O=C(Nc1c2c(cc3c1CCC3)CCC2)NS(=O)(=O)c1ccc(N2CCOCC2)c2nonc12
CC50 at 72 h [1]: > 100 µM

IC50 [10]: 9.18 µM
SMILES: CN(C)c1cccc2c(S(=O)(=O)NC(=O)Nc3c4c(cc5c3CCC5)CCC4)cccc12
CC50 at 72 h [1]: > 100 µM

SMILES: O=C(Nc1c2c(cc3c1CCC3)CCC2)NS(=O)(=O)c1ccc(Cl)c2nonc12
CC50 at 72 h [1]: > 100 µM

SMILES: O=C(Nc1c2c(cc3c1CCC3)CCC2)NS(=O)(=O)c1ccc(N2C[C@@H]3[C@@H](CO)[C@@H]3C2)c2nonc12
CC50 at 72 h [1]: > 100 µM

SMILES: CN(C)c1ccc(S(=O)(=O)NC(=O)Nc2c3c(cc4c2CCC4)CCC3)c2n[se]nc12
CC50 at 72 h [1]: > 100 µM

SMILES: CN(C)[C@@H]1CCCC[C@H]1N(C)c1ccc(S(=O)(=O)NC(=O)Nc2c3c(cc4c2CCC4)CCC3)c2nonc12
CC50 at 72 h [1]: > 100 µM
